According to ChEMBL document CHEMBL1155809, “Design, synthesis, and antihepatocellular carcinoma activity of nitric oxide releasing derivatives of oleanolic acid” (J Med Chem, 2008):
Active and inactive are the calls of the source. No cut-off for these calls is given here.

Assays:
MCF7 [1] = test: Cytotoxicity against human MCF7 cells assessed as cell death by lactate dehydrogenase release assay; assay type: functional, cell-based
HEK293 [2] = test: Cytotoxicity against HEK293 cells assessed as cell death by lactate dehydrogenase release assay; assay type: functional, cell-based; conditions: Homo sapiens
Hep 3B2 = test: Cytotoxicity against human Hep3B cells assessed as levels of nitric oxide production at 100 uM after 30 to 300 mins by colorimetric assay; assay type: functional, cell-based
HeLa [3] = test: Cytotoxicity against human HeLa cells assessed as levels of nitric oxide production at 100 uM after 30 to 300 mins by colorimetric assay; assay type: functional, cell-based
PC-3 [4] = test: Cytotoxicity against human PC3 cells assessed as levels of nitric oxide production at 100 uM after 30 to 300 mins by colorimetric assay; assay type: functional, cell-based
MCF7 [5] = test: Cytotoxicity against human MCF7 cells assessed as levels of nitric oxide production at 100 uM after 30 to 300 mins by colorimetric assay; assay type: functional, cell-based
HEK293 [6] = test: Cytotoxicity against human HEK293 cells assessed as levels of nitric oxide production at 100 uM after 30 to 300 mins by colorimetric assay; assay type: functional, cell-based
HepG2 [7] = test: Cytotoxicity against human HepG2 cells assessed as levels of nitric oxide production at 100 uM after 30 to 300 mins by colorimetric assay; assay type: functional, cell-based
HepG2 [8] = test: Cytotoxicity against human HepG2 cells assessed as cell death at 1 uM after 24 hrs by lactate dehydrogenase release assay; assay type: functional
HepG2 [9] = test: Cytotoxicity against human HepG2 cells assessed as cell death at 0.1 uM after 24 hrs by lactate dehydrogenase release assay; assay type: functional
HepG2 [10] = test: Cytotoxicity against human HepG2 cells assessed as cell death at 0.01 uM after 24 hrs by lactate dehydrogenase release assay; assay type: functional
HepG2 [11] = test: Cytotoxicity against human HepG2 cells assessed as cell death at 0.001 uM after 24 hrs by lactate dehydrogenase release assay; assay type: functional
[12] = Cytotoxicity against human Hep3B cells assessed as cell death at 1 uM after 24 hrs by lactate dehydrogenase release assay; assay type: functional, Hep 3B2
[13] = Cytotoxicity against human Hep3B cells assessed as cell death at 0.1 uM after 24 hrs by lactate dehydrogenase release assay; assay type: functional, Hep 3B2
[14] = Cytotoxicity against human Hep3B cells assessed as cell death at 0.01 uM after 24 hrs by lactate dehydrogenase release assay; assay type: functional, Hep 3B2
[15] = Cytotoxicity against human Hep3B cells assessed as cell death at 0.001 uM after 24 hrs by lactate dehydrogenase release assay; assay type: functional, Hep 3B2
HeLa [16] = test: Cytotoxicity against human HeLa cells assessed as cell death by lactate dehydrogenase release assay; assay type: functional, cell-based
PC-3 [17] = test: Cytotoxicity against human PC3 cells assessed as cell death by lactate dehydrogenase release assay; assay type: functional, cell-based
Mus musculus = test: Toxicity in BALB/c mouse at 15 to 100 mg/kg, ip daily for 3 days assessed after 15 days; assay type: organism-based; design: dose 15-100 mg/kg, route intraperitoneal; conditions: in vivo, 360 h
[18] = Antitumor activity against human Hep3B cells xenografted in non-obese diabetic SCID mouse assessed as reduction in tumor size at 15 mg/kg, ip after 35 days; assay type: functional, Hep 3B2; conditions: route intraperitoneal
[19] = Antitumor activity against human Hep3B cells xenografted in non-obese diabetic SCID mouse assessed as reduction in tumor weight at 15 mg/kg, ip after 35 days; assay type: functional, Hep 3B2; conditions: route intraperitoneal

SMILES	Activity (MCF7 [1])	Activity (HEK293 [2])	Activity (Hep 3B2)	Activity (HeLa [3])	Activity (PC-3 [4])	Activity (MCF7 [5])	Activity (HEK293 [6])	Activity (HepG2 [7])	Activity (HepG2 [8])	Activity (HepG2 [9])	Activity (HepG2 [10])	Activity (HepG2 [11])	Activity [12]	Activity [13]	Activity [14]	Activity [15]	Activity (HeLa [16])	Activity (PC-3 [17])	Activity (Mus musculus)	Activity [18]	further results
CC1(C)CC[C@]2(C(=O)O)CC[C@]3(C)C(=CC[C@@H]4[C@@]5(C)CC[C@H](OC(=O)CCC(=O)OCc6cccc(Oc7no[n+]([O-])c7S(=O)(=O)c7ccccc7)c6)C(C)(C)[C@@H]5CC[C@]43C)[C@@H]2C1	inactive	inactive	Active	inactive	inactive	inactive	inactive	Active	0%	0%	0%	0%	0%	0%	0%	0%	inactive	inactive			
CC1(C)CC[C@]2(C(=O)O)CC[C@]3(C)C(=CC[C@@H]4[C@@]5(C)CC[C@H](O)C(C)(C)[C@@H]5CC[C@]43C)[C@@H]2C1 [OLEANOLIC_ACID]	inactive	inactive	Active	inactive	inactive	inactive	inactive	Active	0%	0%	0%	0%	0%	0%	0%	0%	inactive	inactive	Non-toxic	668 mm3	Activity [19]: 0.961 g
CC(CCOc1no[n+]([O-])c1S(=O)(=O)c1ccccc1)OC(=O)CCC(=O)O[C@H]1CC[C@]2(C)[C@H]3CC=C4[C@@H]5CC(C)(C)CC[C@]5(C(=O)O)CC[C@@]4(C)[C@]3(C)CC[C@H]2C1(C)C (stereo partly specified)	inactive	inactive	Active	inactive	inactive	inactive	inactive	Active	100%	93.5%	13.34%	1.7%	100%	92.4%	14.23%	4.7%	inactive	inactive	Non-toxic	232 mm3	Activity [19]: 0.262 g
CC1(C)CC[C@]2(C(=O)O)CC[C@]3(C)C(=CC[C@@H]4[C@@]5(C)CC[C@H](OC(=O)CCC(=O)OCC#CCOc6no[n+]([O-])c6S(=O)(=O)c6ccccc6)C(C)(C)[C@@H]5CC[C@]43C)[C@@H]2C1	inactive	inactive	Active	inactive	inactive	inactive	inactive	Active	67.41%	13.68%	10.07%	0%	72.51%	19.61%	8.42%	0%	inactive	inactive			
C[C@H](CCC(=O)O)[C@H]1CC[C@H]2[C@@H]3[C@@H](O)C[C@@H]4C[C@H](O)CC[C@]4(C)[C@H]3CC[C@]12C [URSODIOL]	inactive	inactive	Active	inactive	inactive	inactive	inactive	Active	0%	0%	0%	0%	0%	0%	0%	0%	inactive	inactive			
CC1(C)CC[C@]2(C(=O)O)CC[C@]3(C)C(=CC[C@@H]4[C@@]5(C)CC[C@H](OC(=O)CCC(=O)NCCOc6no[n+]([O-])c6S(=O)(=O)c6ccccc6)C(C)(C)[C@@H]5CC[C@]43C)[C@@H]2C1	inactive	inactive	Active	inactive	inactive	inactive	inactive	Active	74.53%	13.01%	8.51%	0%	66.21%	16.34%	5.26%	0%	inactive	inactive			
CC1(C)CC[C@]2(C(=O)O)CC[C@]3(C)C(=CC[C@@H]4[C@@]5(C)CC[C@H](OC(=O)CCC(=O)OCc6c(-c7ccccc7)no[n+]6[O-])C(C)(C)[C@@H]5CC[C@]43C)[C@@H]2C1	inactive	inactive	Active	inactive	inactive	inactive	inactive	Active	0%	0%	0%	0%	0%	0%	0%	0%	inactive	inactive			
CC(CCOc1no[n+]([O-])c1S(=O)(=O)c1ccccc1)OC(=O)[C@]12CCC(C)(C)C[C@H]1C1=CC[C@@H]3[C@@]4(C)CC[C@H](O)C(C)(C)[C@@H]4CC[C@@]3(C)[C@]1(C)CC2 (stereo partly specified)	inactive	inactive	Active	inactive	inactive	inactive	inactive	Active	89.21%	55.11%	6.67%	0%	92.18%	63.51%	11.05%	0%	inactive	inactive	Non-toxic	289 mm3	Activity [19]: 0.332 g
CC(CCOc1no[n+]([O-])c1S(=O)(=O)c1ccccc1)OC(=O)[C@]12CCC(C)(C)C[C@H]1C1=CC[C@@H]3[C@@]4(C)CC[C@H](OC(=O)C(F)(F)F)C(C)(C)[C@@H]4CC[C@@]3(C)[C@]1(C)CC2 (stereo partly specified)	inactive	inactive	Active	inactive	inactive	inactive	inactive	Active	0%	0%	0%	0%	0%	0%	0%	0%	inactive	inactive			
